Experimental data as given in patent US10857128B2, “Methods and compositions for treating inflammatory diseases” (Helmholtz Zentrum München Deutsches Forschungszentrum für …, priority 2017, dated 2020).
Read-outs that look alike come from different tables or passages of the source.

What was measured:
[1] = tested on: costimulatory molecules of LPS-stimulated human dendritic cells; test: Costimulatory molecules on LPS-stimulated human monocyte-derived dendritic cells (flow cytometry); format: cell-based; details: Dendritic cell, 24 h, LPS 0.1 μg/ml, D-amino acid 10 μM, mean ± SD of three experiments, relative to LPS-induced expression
Description: Generation of human monocyte-derived dendritic cells. Peripheral venous blood was obtained from healthy volunteers aged between 20 and 50 years after informed consent. Individuals with allergic disease, acute infection or taking any medication 20 days prior to blood sampling or any history of smoking (personal interview) were excluded prior to blood sampling. All experiments were conducted according to the principles expressed in the Declaration of Helsinki.
Peripheral blood mononuclear cells (PBMC) were isolated from heparinized whole blood by density gradient centrifugation (2000 rpm, 22° C., 20 min) (Biocoll, Biochrom AG, Berlin, Germany). […] Purity and viability of DCs was assessed by flow cytometry (FIG. 9A-C).
Costimulatory molecules on human DCs. The following primary monoclonal antibodies were used: CD83 fluorescein isothiocyanate (FITC); CD1a phycoerythrin (PE); CD86-FITC; CD80-PE; CD14 allophycocyanine (APC); CD40-APC; CD3-peridinin chlorophyll protein (PerCP); HLA-DR-PerCP; mouse immunoglobulins G1 (IgG1) mouse immunoglobulins G1 (IgG1) κ were used as isotype controls using the corresponding fluorochromes (all purchased from BD Biosciences, Heidelberg, Germany). To account for donor dependent variability of DC surface markers, all data were normalized to the expression induced by LPS which was set to 100% after subtraction of background values (FACS Canto, FACS DIVA software, Version 5.0.3, BD Biosciences, Heidelberg, Germany). Murine DC subsets and CD4^+ T cells. Single cell suspensions of splenocytes were obtained by filtering spleens through a 70 μm strainer. Samples were stained with CD3-PB (1:200, Biolegend, San Diego, USA), CD4-APC-H7 (BD, 1:400), CD11c-APC-Cy7 (1:100), Mhc-II-Percp-Cy5 (1:100), CD11b-FITC (1:100), CD80-AF647, CD40-APC (1:100). For intracellular cytokines, total spleen cells were stimulated with anti-CD3 (4 μg/mL, BD Bioscience, Heidelberg, Germany) and anti-CD28 (30 ng/mL, BD Bioscience, Heidelberg, Germany) for 16 h. 1×10^6 of total lung cells were stimulated for 16 h with MACSiBead particles coated with anti-CD3 and anti-CD28 using the T cell activation/expansion kit (Miltenyi Biotec, Bergisch Gladbach, Germany) in TexMACS medium (Miltenyi Biotec) according to the manufactures recommendations. Prior to staining, cells were treated with monensin (0.7 μL/mL, BD Golgi Stop, BD Bioscience, Heidelberg, Germany) for 6 h at 37° C. and intracellularly stained for II-4-PE (1:100, eBioscience, Vienna, Austria according to the manufacturer's protocols. Intracellular staining for Foxp3 was performed by using the Foxp3/Transcription Factor Staining buffer set (eBiosciences, Vienna, Austria) according to the manufacturer's recommendations.
Bioassays for screening for immune modulatory activity in probiotic supernatants. Two biological assays based on down-modulation of costimulatory molecules on human DCs, and of CCL17-secretion by a human Hodgkin lymphoma T cell line (KM-H2) were set up. Human immature DCs were matured with 0.1 μg/mL lipopolysaccharide (LPS) from E. coli (Sigma-Aldrich, St. Louis, USA) in the presence or absence of 200 μL bacteria free supernatants for 24 h followed by flow cytometric analysis of costimulatory molecules.

[2] = tested on: murine naïve CD4+ T cells; test: In vitro differentiation of murine primary T cells (Th1, Th2, Treg); format: cell-based, Balb/c mice; details: 10 or 50 μM D-Trp
Description: Differentiation of murine primary T cells. Murine spleens from female Balb/c mice were filtered through a 40 μm filter to generate single cell suspensions. These were then subjected to red blood cell lysis by using RBC lysis buffer (Biolegend, San Diego, USA) according to the manufacturer's recommendations. Afterwards, naïve CD4^+ T cells were isolated via magnetic-activated cell sorting (MACS) using the naïve CD4^+ T cell isolation kit (Miltenyi Biotec, Bergisch-Gladbach, Germany). The resulting naïve CD4^+ T cells were cultured in 96 wells plates (1×10^6 cells/ml Medium) in TexMACS medium supplemented with 10% FCS, 0.01 mM 2-Mercaptoethanol, rIL-2 (10 ng/ml) as well as MACSiBead particles with anti-CD3 and anti-CD28 (1×10^6 beads per 1×10^6 cells) (all Miltenyi Biotec). Cells were differentiated over a period of 6 days towards Th1 (10 ng/ml IL12 and 10 μg/ml anti-IL4, derived from Cytobox Th1), Th2 (10 ng/ml II4 and 10 μg/ml anti-Ifnγ, derived from Cytobox Th2) and Treg (5 ng/ml) (all Miltenyi Biotec). Differentiation of cells was assessed by flow cytometry (see FIG. 15 for gating strategy), enhanced cytometric bead array (CBA) from cell culture supernatants and qRT-PCR. Prior to CBA and flow cytometry, cells were stimulated with monensin (0.7 μL/mL, BD Golgi Stop, BD Bioscience, Heidelberg, Germany) for 4 h at 37° C. in the prescence of lonomycin (500 ng/ml, Sigma Aldrich, Missouri, USA) and PMA (5 ng/ml, Sigma Aldrich, Missouri, USA).
Assessment of cytokines by cytometric bead array. Levels of II4, II5 and II13 were analysed in BALF and cell culture supernatants using an enhanced cytometric bead array (eCBA, Fex Set Kits, BD Biosciences, Franklin Lakes, N.J., USA) according to the manufacturer's guidelines.
Gene expression analysis. Total RNA was isolated from homogenized lung tissue or cell culture using the miRNeasy Micro Kit according to manufacturer's instructions (Qiagen, Venlo, Netherlands). Concentrations were determined using a NanoDrop® ND-1000 (NanoDrop Technologies, Erlangen, Germany) spectrophotometer. mRNA was transcribed to cDNA with the QuantiTect Rev. Transcription kit (Qiagen, Venlo, Netherlands) and PCR for specific genes was performed on a LightCycler 480 platform with Light Cycler 480 SYBR Green I Mastermix (Roche, Mannheim, Germany).

## N[C@H](Cc1c[nH]c2ccccc12)C(=O)O [D-tryptophan]
[1]; read-out: Percentage of CD40 expressing mature DCs
  activity at 10 µM: 15.2 ± 6.5%
[1]; read-out: Percentage of CD80 expressing mature DCs
  activity at 10 µM: 12.1 ± 1.7%
[1]; read-out: Percentage of CD83 expressing mature DCs
  activity at 10 µM: 7.6 ± 3.3%
[1]; read-out: Percentage of CD86 expressing mature DCs
  activity at 10 µM: 24.1 ± 2.7%
[1]; read-out: Percentage of HLA-DR expressing mature DCs
  activity at 10 µM: 88.9 ± 3%
[2]; 6 days
  Th1 differentiation: remained unaffected
  Th2 cell differentiation: reduced
[2]; Th1 conditions
  lfng expression: remained unaffected
[2]; Th2 conditions
  II-4, Gata3 expression and II-13 secretion: reduced
[2]; Treg conditions
  Foxp3 expression of Treg cells on mRNA and protein level: increased
